Experimental data as given in US20050220819A1, “Novel binding epitopes for helicobacter pylori and use thereof” (priority 2002, published 2005).
“Also recorded” adds a separate entry of the source.

Key:
[1] = test system: Helicobacter pylori; test: TLC bacterial overlay assay: binding of radiolabeled Helicobacter pylori to glycosphingolipids, neoglycolipids and glycolipid derivatives on thin-layer plates; conditions: for binding activity of neoglycolipids with regard to Helicobacter pylori (in words): oligosaccharides reductively aminated to lipid anchor (4-hexadecylaniline); for binding activity of neoglycolipids with regard to Helicobacter pylori (in words) / binding of glycolipid derivatives with regard to Helicobacter pylori (in words): TLC overlay assay; for binding of Helicobacter pylori to purified glycosphingolipids (in words): strain 032, overlay assay on thin-layer plates
[2] = test system: Helicobacter pylori binding to human gastrointestinal cell lines; conditions: Simon et al., 1999; cited from earlier work
[3] = test system: Helicobacter pylori; conditions: Mysore et al., 2000; cited from earlier work

Molecule: CC(=O)NC1C(O)OC(CO)C(OC2OC(CO)C(O)C(OC3OC(CO)C(OC4OC(CO)C(O)C(O)C4NC(C)=O)C(O)C3NC(C)=O)C2O)C1O (stereo not shown) [GalNAcβ4GlcNAcβ3Galβ4GlcNAc]
- binding activity of neoglycolipids with regard to Helicobacter pylori (in words) [1]: clear binding activity

Molecule: CC(=O)NC1C(OC2C(O)C(CO)OC(OC3C(CO)OC(O)C(O)C3O)C2O)OC(CO)C(OC2OC(CO)C(O)C(OC3OC(CO)C(O)C(O)C3O)C2O)C1O (stereo not shown) [Galα3Galβ4GlcNAcβ3Galβ4Glc]
- binding activity of neoglycolipids with regard to Helicobacter pylori (in words) [1]: clear binding activity

Molecule: CC(=O)N[C@H]1[C@H](OC[C@H]2OC(O)[C@H](NC(C)=O)[C@@H](O)[C@@H]2O)O[C@H](CO)[C@@H](O[C@@H]2O[C@H](CO)[C@H](O)[C@H](O)[C@H]2O)[C@@H]1O (stereo partly shown) [Galβ4GlcNAcβ6GlcNAc]
- binding activity of neoglycolipids with regard to Helicobacter pylori (in words) [1]: clear binding activity

Molecule: CNC(=O)C1OC(OC2C(O)C(CO)OC(OC3C(CO)OC(OCC4OC(O)C(NC(C)=O)C(O)C4O)C(NC(C)=O)C3O)C2O)C(O)C(O)C1O (stereo not drawn) [Glc(A-methylamide)β3Galβ4GlcNAcβ6GlcNAc]
- binding activity of neoglycolipids with regard to Helicobacter pylori (in words) [1]: strong binding activity

Molecule: CC(=O)NC1C(OC2C(O)C(CO)OC(OC3C(CO)OC(O)C(O)C3O)C2O)OC(CO)C(OC2OC(CO)C(O)C(OC3OC(C(=O)O)C(O)C(O)C3O)C2O)C1O (stereo not shown) [GlcAβ3Galβ4GlcNAcβ3Galβ4Glc]
- binding activity of neoglycolipids with regard to Helicobacter pylori (in words) [1]: clear binding activity

Molecule: CC(=O)NC1C(O)OC(CO)C(OC2OC(CO)C(O)C(OC3OC(CO)C(O)C(O)C3NC(C)=O)C2O)C1O (stereo not shown) [GlcNAcβ3Galβ4GlcNAc]
- binding activity of neoglycolipids with regard to Helicobacter pylori (in words) [1]: weakly binding or inactive

Molecule: CC(=O)NC1C(O)OC(COC2OC(CO)C(OC3OC(CO)C(O)C(OC4OC(CO)C(O)C(O)C4NC(C)=O)C3O)C(O)C2NC(C)=O)C(O)C1O (stereo not shown) [GlcNAcβ3Galβ4GlcNAcα6GlcNAc]
- binding activity of neoglycolipids with regard to Helicobacter pylori (in words) [1]: weakly binding or inactive
- binding activity of neoglycolipids with regard to Helicobacter pylori (in words) ([1]; listed as GlcNAcα3Galβ4GlcNAcα6GlcNAc): inactive or very weakly active

Molecule: CC(=O)N[C@H]1[C@H](O[C@H]2[C@@H](O)[C@@H](CO)O[C@@H](O[C@H]3[C@H](O)[C@@H](O)C(O)O[C@@H]3CO)[C@@H]2O)O[C@H](CO)[C@@H](O[C@@H]2O[C@H](CO)[C@H](O)[C@@H](O[C@@H]3O[C@H](CO)[C@@H](O)[C@H](O)[C@H]3NC(C)=O)[C@H]2O)[C@@H]1O (stereo partly shown) [GlcNAcβ3Galβ4GlcNAcβ3Galβ4Glc]
- binding activity of neoglycolipids with regard to Helicobacter pylori (in words) [1]: clear binding activity

Molecule: CC(=O)NC1C(OC2C(O)C(CO)OC(OC3C(CO)OC(OC4C(O)C(O)OC(CO)C4O)C(NC(C)=O)C3O)C2O)OC(CO)C(O)C1O (stereo not shown) [GlcNAcβ3Galβ4GlcNAcβ3Man]
- binding activity of neoglycolipids with regard to Helicobacter pylori (in words) [1]: clear binding activity

Molecule: CC(=O)N[C@H]1[C@H](OC[C@H]2OC(O)[C@H](O)[C@@H](O)[C@H]2O)O[C@H](CO)[C@@H](O[C@@H]2O[C@H](CO)[C@H](O)[C@H](O[C@@H]3O[C@H](CO)[C@@H](O)[C@H](O)[C@H]3NC(C)=O)[C@H]2O)[C@@H]1O (stereo partly shown) [GlcNAcβ3Galβ4GlcNAcβ6Gal]
- binding activity of neoglycolipids with regard to Helicobacter pylori (in words) [1]: some binding activity; also recorded: strong binding activity

Molecule: CC(=O)N[C@H]1[C@H](OC[C@H]2O[C@@H](O[C@H]3[C@H](O)[C@@H](O)C(O)O[C@@H]3CO)[C@H](O)[C@@H](O)[C@H]2O)O[C@H](CO)[C@@H](O[C@@H]2O[C@H](CO)[C@H](O)[C@H](O[C@@H]3O[C@H](CO)[C@@H](O)[C@H](O)[C@H]3NC(C)=O)[C@H]2O)[C@@H]1O (stereo partly shown) [GlcNAcβ3Galβ4GlcNAcβ6Galβ4Glc]
- binding activity of neoglycolipids with regard to Helicobacter pylori (in words) [1]: weakly binding or inactive; also recorded: binding activity was strongly reduced

Molecule: CC(=O)N[C@H]1[C@H](OC[C@H]2OC(O)[C@H](NC(C)=O)[C@@H](O)[C@@H]2O)O[C@H](CO)[C@@H](O[C@@H]2O[C@H](CO)[C@H](O)[C@H](O[C@@H]3O[C@H](CO)[C@@H](O)[C@H](O)[C@H]3NC(C)=O)[C@H]2O)[C@@H]1O (stereo partly shown) [GlcNAcβ3Galβ4GlcNAcβ6GlcNAc]
- binding activity of neoglycolipids with regard to Helicobacter pylori (in words) [1]: high affinity binding; also recorded: strong binding activity

Molecule: GalNAcβ3Galα3Galβ4GlcNAcβ3Galβ4Glcβ1Cer [No. 25, reference compound]
- binding of Helicobacter pylori to purified glycosphingolipids (in words) [1]: non-binding

Molecule: GalNAcβ3Galβ4GlcNAcβ3Galβ4Glcβ1Cer [No. 11, reference compound]
- binding of Helicobacter pylori to purified glycosphingolipids (in words) [1]: binding was also found

Molecule: Galα3Galβ4GlcNAcβ3Galβ4Glcβ1Cer [No. 13, reference compound]
- binding of Helicobacter pylori to purified glycosphingolipids (in words) [1]: binding-active

Molecule: Glc(A-NH2)β3GalNAcβ4Glc(A-NH2)β3GalNAc
- binding activity of neoglycolipids with regard to Helicobacter pylori (in words) [1]: strong binding activity

Molecule: Glc(A-benzylamide)β3 Galβ4GlcNAcβ3Galβ4GlcβCer
- binding of glycolipid derivatives with regard to Helicobacter pylori (in words) [1]: binding active
- binding strength towards H. pylori when comparing dilution series of glycolipids on TLC (in words) [1]: binding effectively

Molecule: Glc(A-ethylamide)β3 Galβ4GlcNAcβ3Galβ4GlcβCer
- binding of glycolipid derivatives with regard to Helicobacter pylori (in words) [1]: binding active
- binding strength towards H. pylori when comparing dilution series of glycolipids on TLC (in words) [1]: about equally strong binders and best among the four amide derivatives

Molecule: Glc(A-methylamide)β3Galβ4GlcNAcβ3Galβ4GlcβCer
- binding of glycolipid derivatives with regard to Helicobacter pylori (in words) [1]: binding active
- binding strength towards H. pylori when comparing dilution series of glycolipids on TLC (in words) [1]: very strong binding

Molecule: Glc(A-octadecylamide)β3Galβ4GlcNAcβ3Galβ4GlcβCer
- binding of glycolipid derivatives with regard to Helicobacter pylori (in words) [1]: binding active
- binding strength towards H. pylori when comparing dilution series of glycolipids on TLC (in words) [1]: binding effectively

Molecule: GlcAβ3GalNAcβ4GlcAβ3GalNAcβ4GlcAβ3GalNAc
- binding activity of neoglycolipids with regard to Helicobacter pylori (in words) [1]: clear binding activity

Molecule: GlcAβ3Galβ4GlcNAcβ3Galβ4GlcβCer [reference compound]
- binding of glycolipid derivatives with regard to Helicobacter pylori (in words) [1]: binding active

Molecule: GlcAβ3Galβ4GlcNAcβ6GlcNAc
- binding activity of neoglycolipids with regard to Helicobacter pylori (in words) [1]: clear binding activity

Molecule: Glcβ3Galβ4GlcNAcβ3Galβ4GlcβCer
- binding of glycolipid derivatives with regard to Helicobacter pylori (in words) [1]: binding active
- binding strength towards H. pylori when comparing dilution series of glycolipids on TLC (in words) [1]: strong binding

Molecule: NeuAcα3GalNAcβ3Galβ4GlcNAcβ3Galβ4Glcβ1Cer [No. 24, reference compound]
- binding of Helicobacter pylori to purified glycosphingolipids (in words) [1]: non-binding

Molecule: maltoheptaose [reference compound]
- binding activity of neoglycolipids with regard to Helicobacter pylori (in words) [1]: weakly binding or inactive

Molecule: sialyl-lactose
- inhibition of Helicobacter pylori binding to human gastrointestinal cell lines [2]: inhibits
- efficacy in rhesus monkey animal model of the infection [3]: effective
